Reference: patent US20230158031A1, “Treatment of Acute Respiratory Distress Syndrome and Other Disorders Involving Cytokine Storm Using BTK Inhibitors” (Principia Biopharma Inc., priority 2020, published 2023)

Key:
neutrophils [1] = assay: Neutrophil recruitment to the necrotic zone following sterile liver injury (heat injury); format: in vivo; conditions: 4 h after heat injury; spinning disc time-lapse microscopy; FIG. 9B
neutrophils [2] = assay: Neutrophil intraluminal crawling following fMLP-mediated arrest in vivo (intravital microscopy, cremaster); conditions: compared to vehicle control; cremaster superfused with fMLP (10 μM), time-lapse microscopy 2 h; FIG. 9A
Source text: Following post-adhesion strengthening, neutrophils undertake Mac-1 (an integrin) dependent migratory activity on the vascular side of the vessel wall prior to transmigration ([…] and Zarbock 2013). Previous studies have highlighted the importance of this step for successful neutrophil recruitment (Phillipson et al. 2006). To investigate the effects of Btk inhibition on this step of the leukocyte recruitment cascade, intraluminal crawling following fMLP (N-formylmethionine-leucyl-phenylalanine)-mediated arrest in vivo was investigated. Using intravital microscopy, intravascular crawling of neutrophils was examined as described previously (Phillipson et al. 2006). Briefly, anti-Gr-1 antibody (clone RB6-8C5), labelled with Alexa Fluor 488 (Molecular Probes, Eugene, Oreg., USA), was injected via the cannulated carotid artery prior to the experiment. Following preparation and exteriorization, the cremaster was superfused with fMLP (10 μM) and time-lapse microscopy was performed for 2 h. The number of adherent cells was determined.

[3] = test system: anti-GBM glomerulonephritis; assay: Mouse anti-GBM glomerulonephritis model; format: in vivo; conditions: for kidney pathology: kidney histology after Study Day 10, relative to Dex 1 mg/kg QD
Protocol: The mouse anti-GBM glomerulonephritis model involves antibody mediated autoimmunity, and the model is histologically and mechanistically similar to glomerulonephritis in humans. The model also includes kidney deposition of immune complexes (IC), targeting glomerular basement membrane. The efficacy of Compound (IB) (also referred to as PRN1008) relative to the corticosteroid dexamethasone (Dex) was tested in a mouse anti-GBM glomerulonephritis model according to the design shown in FIG. 1. Briefly, to induce glomerulonephritis, mice were pre-sensitized with sheep IgG/FCA (Study Day −5). Five days later (Study Day 0), the mice received anti-GBM sheep IgG. Treatment with vehicle, Compound (IB), or Dex with various dosage regimes (Compound (IB): 10 mg/kg, 20 mg/kg, or 40 mg/kg QD or 20 mg/kg BID; Dex: 1 mg/kg QD; Vehicle: QD or BID) began at Study Day −1, one day prior to injection with anti-GBM sheep IgG. Treatment continued until Study Day 10, for […] treatment in total. Urine protein analysis was conducted on Study Days −6, −4, −1, 1, 3, 6, 8, and 10. Following Study Day 10, mice serum BUN levels were analyzed as a measure of kidney function, and kidney histology was performed.

[4] = test system: BioMAP human primary cell-based co-culture systems; assay: BioMAP Diversity PLUS Panel; conditions: FIG. 8
Source text: The BioMAP Diversity Plus Panel (FIG. 7) provides broad phenotypic profiles for pharmaceutically active agents. The panel uses 12 individual BioMAP human primary cell-based co-culture systems to predictively model drug effects on multiple tissues and disease states, providing 148 clinically relevant biomarker readouts. […] The LDLR gene is associated with the low-density lipoprotein receptor, which binds low-density lipoproteins that carry cholesterol in blood. […] Decreased MCP-1, sTNFα, eotaxin-3, ICAM-1, IL-la, and IL-8 and increased sPGE2 is associated with PRN1008's inflammation related activities. Decreased CD38, sIgG, sIL-17A, sIL-2, sIL-6, and M-CSF and increased CD69 are associated with PRN1008's immunomodulatory activities. Decreased MMP-9, uPA, and PAI-I is associated with PRN 1008's tissue remodeling activities. Decreased thrombomodulin (TM) and modulated tissue factor (TF) is associated with PRN1008's hemostasis-related activities. Thus, the BioMAP Diversity Plus Panel data for PRN1008 supports its anti-inflammatory and cytokine inhibition mechanisms.

[5] = inflammation related activities

CC(C)(C)C=C(C#N)C(=O)N1CCC[C@@H](n2nc(-c3ccc(Oc4ccccc4)cc3F)c3c(N)ncnc32)C1 [Compound (IA), (R)-2-(3-(4-amino-3-(2-fluoro-4-phenoxyphenyl)-1H-pyrazolo[3,4-d]pyrimidin-1-yl)piperidine-1-carbonyl)-4,4-dimethylpent-2-enenitrile]
neutrophil recruitment following sterile liver injury (neutrophils [1]): abolish neutrophil recruitment
migratory activity of neutrophils (arrested cells that crawled) (neutrophils [2]): severely decreased

CC(C)(C=C(C#N)C(=O)N1CCC[C@@H](n2nc(-c3ccc(Oc4ccccc4)cc3F)c3c(N)ncnc32)C1)N1CCN(C2COC2)CC1 [Compound (IB), 2-[(3R)-3-[4-amino-3-(2-fluoro-4-phenoxy-phenyl)pyrazolo[3,4-d]pyrimidin-1-yl]piperidine-1-carbonyl]-4-methyl-4-[4-(oxetan-3-yl)piperazin-1-yl]pent-2-enenitrile]
kidney weight gain (a surrogate for kidney inflammation) ([3]; 10, 20 or 40 mg/kg QD or 20 mg/kg BID, FIG. 5): dose dependent inhibition
serum blood urea nitrogen (BUN) levels ([3]; 10, 20 or 40 mg/kg QD or 20 mg/kg BID, Study Day -1 to 10, FIG. 2): dose dependent inhibition
severe proteinuria ([3]; 10, 20 or 40 mg/kg QD or 20 mg/kg BID, Study Day -1 to 10, FIG. 3): dose dependent inhibition
kidney pathology ([3]; FIG. 6): reduced kidney pathology
kidney pathology ([3]; FIG. 6, listed as PRN1008): significantly reduced kidney pathology, superior to a steroid comparator (Dex)
proteinuria during the study ([3]; urine protein analysis Study Days -6 to 10, FIG. 4): reduced proteinuria
LDLR ([4]; BioMAP Profile): decreased
anti-proliferative activity, B cells ([4]; BioMAP Profile): Anti-proliferative activities
anti-proliferative activity, T cells ([4]; BioMAP Profile): Anti-proliferative activities
anti-proliferative activity, coronary artery smooth muscle cells ([4]; BioMAP Profile): Anti-proliferative activities
anti-proliferative activity, endothelial cells ([4]; BioMAP Profile): Anti-proliferative activities
anti-proliferative activity, fibroblasts ([4]; BioMAP Profile): Anti-proliferative activities
thrombomodulin (TM) ([4]; hemostasis-related activities): Decreased
tissue factor (TF) ([4]; hemostasis-related activities): modulated
CD38 ([4]; immunomodulatory activities): Decreased
CD69 ([4]; immunomodulatory activities): increased
M-CSF ([4]; immunomodulatory activities): Decreased
sIL-2 ([4]; immunomodulatory activities): Decreased
sIL-6 ([4]; immunomodulatory activities): Decreased
sIL-17A ([4]; immunomodulatory activities): Decreased
sIgG ([4]; immunomodulatory activities): Decreased
ICAM-1 [4, 5]: Decreased
IL-8 [4, 5]: Decreased
IL-la [4, 5]: Decreased
MCP-1 [4, 5]: Decreased
eotaxin-3 [4, 5]: Decreased
sPGE2 [4, 5]: increased
sTNFα [4, 5]: Decreased
MMP-9 ([4]; tissue remodeling activities): Decreased
PAI-I ([4]; tissue remodeling activities): Decreased
uPA ([4]; tissue remodeling activities): Decreased
